One test deals with T1, α4β7 (Homo sapiens, UniProt P13612+P26010).
T1 construct: host or cells: JY human B-cell line
T1 sequence (P13612 34-1032): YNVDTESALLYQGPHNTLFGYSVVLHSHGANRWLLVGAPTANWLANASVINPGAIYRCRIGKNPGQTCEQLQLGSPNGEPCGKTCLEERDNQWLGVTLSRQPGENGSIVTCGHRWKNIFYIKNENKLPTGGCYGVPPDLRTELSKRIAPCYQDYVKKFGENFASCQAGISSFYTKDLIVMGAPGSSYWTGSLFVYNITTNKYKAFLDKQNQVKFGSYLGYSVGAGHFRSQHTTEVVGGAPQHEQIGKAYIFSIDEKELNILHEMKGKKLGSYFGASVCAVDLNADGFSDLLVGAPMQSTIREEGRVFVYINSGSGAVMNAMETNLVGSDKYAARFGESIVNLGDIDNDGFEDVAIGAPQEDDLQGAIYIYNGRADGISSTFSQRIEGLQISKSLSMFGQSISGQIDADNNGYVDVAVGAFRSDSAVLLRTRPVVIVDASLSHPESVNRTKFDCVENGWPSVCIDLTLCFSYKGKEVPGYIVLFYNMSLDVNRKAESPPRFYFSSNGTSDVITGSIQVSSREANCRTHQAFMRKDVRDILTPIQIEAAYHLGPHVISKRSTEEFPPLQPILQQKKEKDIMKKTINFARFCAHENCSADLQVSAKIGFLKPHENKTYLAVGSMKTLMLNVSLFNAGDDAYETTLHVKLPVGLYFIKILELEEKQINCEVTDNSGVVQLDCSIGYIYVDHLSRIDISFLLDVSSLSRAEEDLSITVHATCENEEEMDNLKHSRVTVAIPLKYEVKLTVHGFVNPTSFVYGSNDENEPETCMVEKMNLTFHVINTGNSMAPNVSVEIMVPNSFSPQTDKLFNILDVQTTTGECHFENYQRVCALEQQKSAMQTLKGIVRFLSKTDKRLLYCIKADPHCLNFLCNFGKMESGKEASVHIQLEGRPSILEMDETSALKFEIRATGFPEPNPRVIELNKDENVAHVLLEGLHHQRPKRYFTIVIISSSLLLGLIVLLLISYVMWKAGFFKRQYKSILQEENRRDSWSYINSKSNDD
T1 sequence (P26010 20-798): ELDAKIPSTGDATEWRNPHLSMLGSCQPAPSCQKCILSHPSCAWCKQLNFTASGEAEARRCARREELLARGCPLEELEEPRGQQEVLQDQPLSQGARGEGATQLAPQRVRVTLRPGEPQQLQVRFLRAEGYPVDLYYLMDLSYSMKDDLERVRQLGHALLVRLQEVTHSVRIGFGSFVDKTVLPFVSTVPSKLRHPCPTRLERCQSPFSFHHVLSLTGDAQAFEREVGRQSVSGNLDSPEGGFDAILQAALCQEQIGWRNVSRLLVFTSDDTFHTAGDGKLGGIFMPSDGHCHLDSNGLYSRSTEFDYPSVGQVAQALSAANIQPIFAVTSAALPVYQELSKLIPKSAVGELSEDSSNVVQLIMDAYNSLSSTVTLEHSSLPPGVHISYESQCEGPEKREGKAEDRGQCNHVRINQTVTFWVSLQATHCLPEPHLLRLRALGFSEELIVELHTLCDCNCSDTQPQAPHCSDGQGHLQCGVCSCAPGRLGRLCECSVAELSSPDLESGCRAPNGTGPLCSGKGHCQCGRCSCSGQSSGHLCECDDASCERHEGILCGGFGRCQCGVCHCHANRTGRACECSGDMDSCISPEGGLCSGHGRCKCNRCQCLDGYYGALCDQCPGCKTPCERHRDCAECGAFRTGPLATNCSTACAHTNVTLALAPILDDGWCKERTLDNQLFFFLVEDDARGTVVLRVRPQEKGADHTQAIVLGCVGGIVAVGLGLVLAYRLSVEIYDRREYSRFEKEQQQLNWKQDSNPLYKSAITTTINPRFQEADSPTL
The test can be described thus: Direct binding assay for α4β7 (VCAM-Ig, JY cells). As to the method:
The results presented in Table 3 summarize the integrin selectivity for PEGylated inhibitors. The selectivity of the PEGylated inhibitors for the four integrins indicated were tested in adhesion formats for α1β1 and α2β1, and by direct binding for α4β7. Serial dilutions of each compound were tested and IC50 values calculated from the concentration dependence of the inhibition curves. KD values derived from kinetic data are shown for binding to α4β1.

For test [1], the target named is T2, α4β1 (Homo sapiens, UniProt P05556+P13612). The test can be described thus: Kinetic binding to α4β1 on Jurkat cells, competition with 35S-B as probe for free α4β1. Conditions: for koff: read-out: koff/10^−4; for kon: read-out: kon/10^6; for Kd: calculated from on- and off-rate constants. Also noted: endogenous in cells; host or cells: Jurkat human T-cell line.
Experimental: All cells were periodically monitored for high integrin surface expression by FACS analysis. The binding of the various inhibitors to α4β1 were assessed on Jurkat cells by competition using radioactive ^35S-B as a reporter for a 1 occupancy. Jurkat cells were pelleted by centrifugation, washed two times with TBS (50 mM Tris HCl, 150 mM NaCl, 0.1% bovine serum albumin, 2 mM glucose, 10 mM HEPES pH 7.4), suspended at approximately 2×10^6 cells/mL in TBS, and counted using a Neubauer hemocytometer. The cells were further diluted 2×10^6 cells/mL with TBS containing 1 mM CaCl2 and 1 mM MgCl2 and treated with serial dilutions of test compound for 1 hour, and then 5 nM ^35S-B, an amount sufficient to bind all unoccupied receptors, was added for 10 minutes before measuring the bound counts. The cells were then pelleted by centrifugation, resuspended in 100 μL of TBS plus Mn^2+, and transferred to a scintillation vial containing 2.9 mL of ScintiVerse II (Fisher Scientific). Cell-associated radioactivity was quantified by scintillation counting. All studies were performed in siliconized 1.5 mL eppendorf tubes with a standard 1 mL sample volume. Each condition was tested in at least two independent studies. Non-specific binding of ^35S-B to cells was assessed at each cell density and ^35S-B concentration in TBS but in the absence of added metal ion. Specific counts bound were calculated by subtracting non specific counts from total counts bound. Counts bound under these conditions measures integrin that is not occupied by the test compound and is therefore free to bind the ^35S-B. The competition format was also used for kinetic binding studies. Binding and dissociation constants were calculated from α4β1 that remained free to bind the ^35S-B after treatment with test compound.
The affinities of the PEGylated inhibitors for α4β1 were calculated from association and disassociation rate constants using a kinetic analysis. For these studies, Jurkat cells expressing α4β1 (75,000 copies/cell) were treated with the inhibitors and then ^35S-B was added as a probe to detect free α4β1. The levels of bound inhibitor were calculated from a measure of total ^35S-B bound in the absence of added inhibitor and counts bound following inhibitor treatment.
Test [2] concerns the target T2, α4β1. In words: Equilibrium binding on Jurkat cells, competition with 35S-B as reporter.
Experimental: The α4β1-expressing Jurkat human T-cell line (a gift from S. Burakoff, Dana Farber Cancer Institute, Boston, Mass.), and the α4β7-expressing human B-cell line, JY (American Type Tissue Collection, Rockville, Md.) were maintained in culture at 37° C. in RPMI-1640 medium supplemented with 10% fetal bovine serum (FBS). K562 cell lines transfected with either the human α1-integrin chain (Phil Gotwells, Biogen, Inc) or with the human α2 integrin chain (a gift from M. Hemler, Dana Farber Cancer Institute, Boston, Mass.) were maintained in RPMI-1640 medium supplemented with 10% FBS and 1 mg/mL G418. All cells were periodically monitored for high integrin surface expression by FACS analysis. The binding of the various inhibitors to α4β1 were assessed on Jurkat cells by competition using radioactive ^35S-B as a reporter for a 1 occupancy. Jurkat cells were pelleted by centrifugation, washed two times with TBS (50 mM Tris HCl, 150 mM NaCl, 0.1% bovine serum albumin, 2 mM glucose, 10 mM HEPES pH 7.4), suspended at approximately 2×10^6 cells/mL in TBS, and counted using a Neubauer hemocytometer. The cells were further diluted 2×10^6 cells/mL with TBS containing 1 mM CaCl2 and 1 mM MgCl2 and treated with serial dilutions of test compound for 1 hour, and then 5 nM ^35S-B, an amount sufficient to bind all unoccupied receptors, was added for 10 minutes before measuring the bound counts. The cells were then pelleted by centrifugation, resuspended in 100 μL of TBS plus Mn^2+, and transferred to a scintillation vial containing 2.9 mL of ScintiVerse II (Fisher Scientific). Cell-associated radioactivity was quantified by scintillation counting. All studies were performed in siliconized 1.5 mL eppendorf tubes with a standard 1 mL sample volume. Each condition was tested in at least two independent studies. Non-specific binding of ^35S-B to cells was assessed at each cell density and ^35S-B concentration in TBS but in the absence of added metal ion. Specific counts bound were calculated by subtracting non specific counts from total counts bound. Counts bound under these conditions measures integrin that is not occupied by the test compound and is therefore free to bind the ^35S-B. The competition format was also used for kinetic binding studies. Binding and dissociation constants were calculated from α4β1 that remained free to bind the ^35S-B after treatment with test compound.
The affinities of the PEGylated inhibitors for α4β1 were calculated from association and disassociation rate constants using a kinetic analysis. For these studies, Jurkat cells expressing α4β1 (75,000 copies/cell) were treated with the inhibitors and then ^35S-B was added as a probe to detect free α4β1. The levels of bound inhibitor were calculated from a measure of total ^35S-B bound in the absence of added inhibitor and counts bound following inhibitor treatment. […] IC50 values were calculated from equilibrium binding studies on Jurkat cells through competition using ^35S-B as a reporter in buffer containing 1 mM Ca^2+ and 1 mM Mg^2+.
Second, the effect of protein binding on the affinity of the PEGylated inhibitors for α4β1 on Jurkat cells was evaluated from equilibrium binding measurements.
Setting [3] is: IC50, buffer with 1 mM Ca2+ and 1 mM Mg2+, no plasma.

T2 sequence (P05556 21-798, one chain of several): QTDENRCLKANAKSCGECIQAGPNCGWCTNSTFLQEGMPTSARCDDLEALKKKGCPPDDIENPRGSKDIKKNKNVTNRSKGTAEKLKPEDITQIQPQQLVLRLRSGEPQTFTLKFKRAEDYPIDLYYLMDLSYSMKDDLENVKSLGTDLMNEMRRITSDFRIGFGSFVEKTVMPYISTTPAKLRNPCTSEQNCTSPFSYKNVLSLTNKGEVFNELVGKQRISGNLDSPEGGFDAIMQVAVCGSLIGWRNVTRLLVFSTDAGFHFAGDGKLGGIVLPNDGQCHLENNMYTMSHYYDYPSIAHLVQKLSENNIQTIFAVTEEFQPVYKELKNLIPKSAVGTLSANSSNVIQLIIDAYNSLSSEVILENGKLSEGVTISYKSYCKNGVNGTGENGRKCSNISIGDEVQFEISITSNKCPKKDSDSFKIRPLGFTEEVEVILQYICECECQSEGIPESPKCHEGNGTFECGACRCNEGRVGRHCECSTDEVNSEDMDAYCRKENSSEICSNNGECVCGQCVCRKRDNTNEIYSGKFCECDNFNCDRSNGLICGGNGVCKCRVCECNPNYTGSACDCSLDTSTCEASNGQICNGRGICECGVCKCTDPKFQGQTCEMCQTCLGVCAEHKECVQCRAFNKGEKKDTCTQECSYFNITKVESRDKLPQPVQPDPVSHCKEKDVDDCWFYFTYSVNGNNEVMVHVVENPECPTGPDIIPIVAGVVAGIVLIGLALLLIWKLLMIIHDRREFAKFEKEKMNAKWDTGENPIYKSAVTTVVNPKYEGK

At α4β7 (direct binding), `Cc1ccccc1NC(=O)Nc1ccc(CC(=O)N(C)[C@@H](CC(C)C)C(=O)NCC[C@H](NC(=O)C2CCCN2S(=O)(=O)c2ccccc2)C(=O)O)cc1` (stereo partly drawn) [Compound B, 2S-[(1-benzenesulfonyl-pyrrolidine-2S-carbonyl)-amino]-4-[4-methyl-2S-(methyl-{2-[4-(3-o-tolyl-ureido)-phenyl]-acetyl}-amino)-pentanoylamino]-butyric acid] returned an IC50 above 1000 nM. Besides, the “% bound Ca2+Mg2+ 30 min” value on α4β1 [1] (Ca2+Mg2+, 30 min) is above 90%. Further, at α4β1 [1] (Jurkat cells, 35S-B probe), the On-rate is 4e+06 M⁻¹ s⁻¹, the koff was determined as 1.9e-05 s⁻¹ and the kon was found to be 4e+06 M⁻¹ s⁻¹. The “% bound Mn2+ 60 min” value at α4β1 [1] (Mn2+, 60 min) is reported as above 95%. Further, the equilibrium dissociation constant (Kd) at α4β1 [1] (Jurkat cells) was 0.005 nM. On α4β1 [2] (IC50(HP), 100% human plasma), this compound gave an IC50 of 1.5 nM. The same compound registered an IC50 at α4β1 [2] (setting [3]) of 0.21 nM.
On to `Cc1ccccc1NC(=O)Nc1ccc(CC(=O)N(C)[C@@H](CC(C)C)C(=O)NCC[C@H](NC(=O)[C@@H]2CCCN2S(=O)(=O)c2cc(Cl)cc(Cl)c2)C(=O)O)cc1` [Compound R, 2S-{[1-(3,5-dichloro-benzenesulfonyl)-pyrrolidine-2S-carbonyl]-amino}-4-[4-methyl-2S-(methyl-{2-[4-(3-o-tolyl-ureido)-phenyl]-acetyl}-amino)-pentanoylamino]-butyric acid], for which, at α4β7 (α4β1 versus α4β7), the “affinity higher for α4β1 than for α4β7” value is > 2,000 fold. For the same compound, on α4β1 [1] (Jurkat cells, 35S-B probe), the koff worked out at 1.2e-05 s⁻¹ and the kon turned out to be 1.5e+06 M⁻¹ s⁻¹. Also, on α4β1 [1] (Jurkat cells), the Kd is 0.009 nM. On α4β1 [2] (IC50(HP), 100% human plasma), this compound displayed a half-inhibitory concentration (IC50) of 0.8 nM. At α4β1 [2] (setting [3]), this compound yielded an IC50 of 0.15 nM.
